pEC50, pIC50: −log10 of the molar value. In brackets after ≈: the same amount, converted by molar mass.
Legend:
[1] = tested on: HepG2; test: Cytotoxicity against human HepG2 cells assessed as reduction in cell viability incubated for 72 hrs by MTT assay; assay type: functional
[2] = tested on: Plasmodium falciparum; test: Antiplasmodial activity against Plasmodium falciparum W2 assessed as reduction in parasite growth after 72 hrs by SYBR Green fluorescence assay; assay type: functional, organism-based; conditions: W2, 72 h
[3] = tested on: Plasmodium falciparum; test: microbe, parasite or virus in culture; conditions: 3D7, 72 h
[4] = tested on: Plasmodium falciparum; test: Antiparasitic activity against Plasmodium falciparum 3D7 assessed as reduction in parasite growth; assay type: functional, organism-based
[5] = tested on: Plasmodium falciparum; test: Antiplasmodial activity against multidrug resistant Plasmodium falciparum K1 assessed as reduction in parasite growth by [3H]-hypoxanthine incorporation assay; assay type: functional, organism-based
[6] = tested on: HepG2; test: Cytotoxicity against human HepG2 cells assessed as reduction in cell viability measured for 48 hrs by MTT assay; assay type: functional
[7] = tested on: Plasmodium falciparum; test: Antiplasmodial activity against Plasmodium falciparum NF54 assessed as reduction in parasite growth; assay type: functional, organism-based
[8] = Cytotoxicity against African green monkey Vero cells assessed as reduction in cell growth measured after 72 hrs by MTT assay; assay type: toxicity, cell-based; conditions: African green monkey (Chlorocebus sabaeus)
[9] = tested on: Plasmodium falciparum; test: microbe, parasite or virus in culture; conditions: W2
Description: Antimalarial activity against Plasmodium falciparum W2 assessed as reduction in parasite growth

[10] = tested on: Plasmodium falciparum; test: Antimalarial activity against Plasmodium falciparum 3D7 assessed as inhibition of parasite growth incubated for 72 hrs by SYBR Green I staining based analysis; assay type: functional, organism-based; conditions: 3D7, 72 h
[11] = tested on: Plasmodium falciparum; test: Antiplasmodial activity against Plasmodium falciparum Dd2 assessed as reduction in parasite growth measured after 72 hrs by SYBR Green 1 staining based assay; assay type: functional, organism-based; conditions: Dd2, 72 h
[12] = tested on: HepG2; test: Cytotoxicity against human HepG2 cells assessed as reduction in cell viability measured for 48 hrs by SRB assay; assay type: functional
[13] = tested on: HepG2; test: Cytotoxicity against human HepG2 cells assessed as reduction in cell growth; assay type: functional
[14] = Cytotoxicity against african green monkey Vero cells assessed as cell viability measured after 48 hrs by MTT assay; assay type: toxicity, cell-based, Chlorocebus sabaeus
[15] = tested on: Plasmodium falciparum; test: Antimalarial activity against […] Plasmodium falciparum NF54 assessed as inhibition of parasite growth incubated for 48 hrs by SYBR green dye based flow cytometry; assay type: functional, organism-based; conditions: NF54, 48 h
[16] = tested on: Plasmodium falciparum; test: Antimalarial activity against Plasmodium falciparum K1 assessed as parasite growth inhibition; assay type: functional, organism-based
[17] = tested on: Plasmodium falciparum; test: Antimalarial activity against Plasmodium falciparum K1 assessed as reduction in parasite growth incubated for 48 hrs by SYBR Green I staining based analysis; assay type: functional, organism-based; conditions: K1, 48 h
[18] = tested on: Plasmodium falciparum; test: Antiparasitic activity against Plasmodium falciparum; assay type: functional, organism-based
[19] = tested on: Plasmodium falciparum; test: microbe, parasite or virus in culture; conditions: W2; remark: listed apart in the source
[20] = tested on: Plasmodium falciparum; test: microbe, parasite or virus in culture; conditions: 3D7, 48 h
[21] = tested on: Plasmodium falciparum; test: Antimalarial activity against Plasmodium falciparum NF54; assay type: functional, organism-based
[22] = tested on: Plasmodium falciparum; test: Antimalarial activity against Plasmodium falciparum Dd2 assessed as reduction in parasite growth; assay type: functional, organism-based
[23] = tested on: Plasmodium falciparum; test: Antimalarial activity against Plasmodium falciparum 3D7 assessed as inhibition of parasite growth measured after 72 hrs by SYBR Green I staining based analysis; assay type: functional, organism-based; conditions: 3D7, 72 h
[24] = Cytotoxicity against human HFF cells assessed as inhibition of cell viability measured after 48 hrs by MTT assay; assay type: toxicity, cell-based
[25] = tested on: Plasmodium falciparum; test: Antiplasmodial activity against CQ-sensitive Plasmodium falciparum NF54; assay type: functional, organism-based
[26] = tested on: Plasmodium falciparum; test: Antimalarial activity against Plasmodium falciparum D6 assessed as reduction in parasite growth; assay type: functional, organism-based

SMILES: CCCN(C(c1cccnc1)c1nnnn1-c1ccccc1C)C1(c2cccc(C(F)(F)F)c2)CC1 (centres undefined)
- CC50 [1]: 10 µM

SMILES: COc1ccc(NC(=O)C(c2ccc(F)c(Cl)c2)N2CCN(c3ncnc4sc5c(c34)CCCC5)CC2)cc1 (centres undefined)
- pIC50 [2]: 6.92
- pIC50 [3]: 6.00

SMILES: COc1ccc(C(F)(F)F)cc1CN(C1CC1)C(c1cccnc1)c1nnnn1-c1ccccc1C (centres undefined)
- CC50 [1]: 16 µM

SMILES: Cc1ncc(C(C(=O)N(C)c2ccccc2C)N(Cc2cccc(C(F)(F)F)c2)C2CC2)cn1 (centres undefined)
- pEC50 [4]: 5.09
- pEC50 [5]: 5.01
- CC50 [6]: > 30 µM

SMILES: Oc1ccc(-c2cc(-c3ccc(O)cc3)nc(NCCCCNc3ccnc4cc(Cl)ccc34)n2)cc1
- pIC50 [7]: 6.49

SMILES: OC(c1cc(C(F)(F)F)nc2c(C(F)(F)F)cccc12)C1CCCCN1 (centres undefined) [MEFLOQUINE]
- IC50 at 72 h [8]: 15 µM
- pIC50 [9]: 8.00

SMILES: Cc1ncc(C(c2nnnn2C2CC2)N(C2CC2)C2(c3cccc(C(F)(F)F)c3)CC2)cn1 (centres undefined)
- pEC50 [10]: < 4.52
- pEC50 [11]: 4.68
- CC50 [12]: > 30 µM

SMILES: CCN(CC)CCCC(C)Nc1ccnc2cc(Cl)ccc12 (centres undefined) [CHLOROQUINE]
- CC50 [13]: 45.4 µM
- CC50 at 48 h ([14]; chlorocebus sabaeus, time 48 hrs): 393 µM
- IC50 at 72 h [8]: 907 µM

SMILES: Clc1ccc2c(NCCn3cc(-c4ccnc(-c5ccccn5)c4)nn3)ccnc2c1
- pIC50 [15]: 7.05
- pIC50 [16]: 6.57

SMILES: CC[C@H]1CN2CCc3cc(OC)c(OC)cc3[C@@H]2C[C@@H]1C[C@H]1NCCc2cc(OC)c(OC)cc21 [EMETINE]
- pIC50 [15]: 6.60
- pIC50 [16]: 6.19

SMILES: Cc1ccccc1-n1nnnc1C(c1cncnc1)N(Cc1cccc(C(F)(F)F)c1)C1CC1 (centres undefined)
- pEC50 [10]: 6.40
- CC50 [12]: 37 µM

SMILES: COC(=O)C1=C(Cn2cc(CCOc3cc(C(F)(F)F)nc4c(C(F)(F)F)cccc34)nn2)NC(=O)NC1c1ccc(F)cc1 (centres undefined)
- pIC50 [17]: < 5.30

SMILES: C=C[C@H]1CN2CC[C@H]1C[C@H]2[C@H](O)c1ccnc2ccc(OC)cc12 [QUININE]
- pIC50 [18]: 5.57
- pIC50 [19]: 6.08
- IC50 [20]: 0.26 µg/mL (≈ 0.801 µM)

SMILES: Cc1nc(OCc2cn(CCCNc3ccnc4cc(Cl)ccc34)nn2)nc(-c2ccc([N+](=O)[O-])cc2)c1C(=O)OC(C)C
- pIC50 [21]: 7.40
- pIC50 [22]: 5.35

SMILES: CC(C)=CCC1=C(OCc2cn(C3CC(CO)OC3n3cc(C)c(=O)[nH]c3=O)nn2)C(=O)c2ccccc2C1=O (centres undefined)
- CC50 [13]: 60.7 µM

SMILES: Cc1nc(OCc2cn(CCNc3ccnc4cc(Cl)ccc34)nn2)nc(-c2ccccc2[N+](=O)[O-])c1C(=O)OC(C)C
- IC50 at 48 h ([14]; African green monkey (Chlorocebus sabaeus)): 150 µM
- pIC50 [21]: 6.74
- pIC50 [22]: 6.00

SMILES: COc1ccc(-c2cc(-c3ccc(OC)c(OC)c3)nc(N3CCN(c4ccnc5cc(Cl)ccc45)CC3)n2)cc1OC
- pIC50 [7]: 5.21

SMILES: COc1ccc(C(F)(F)F)cc1CN(C)C(c1cccnc1)c1nnnn1-c1ccccc1C (centres undefined)
- pEC50 [11]: 5.77
- pEC50 [23]: 5.92

SMILES: Cc1ncc(Cn2cc(CCOC(=O)c3ccccc3)nn2)c(N)n1
- IC50 at 48 h [24]: > 200 µM

SMILES: Oc1ccc(-c2cc(-c3ccc(O)c(O)c3)nc(NCCCCNc3ccnc4cc(Cl)ccc34)n2)cc1
- pIC50 [7]: 5.79

SMILES: CCN(CC)Cc1cc(Nc2ccnc3cc(Cl)ccc23)ccc1O [AMODIAQUINE]
- pIC50 [19]: 7.15
- pIC50 [9]: 7.22

SMILES: CC1(C)[C@@H](O)CC[C@]2(C)[C@H]3C(=O)CC4[C@@H]5C[C@@](C)(C(=O)OCc6cn(-c7ccc(C#N)nc7)nn6)CC[C@]5(C)CC[C@@]4(C)[C@]3(C)CC[C@@H]12 (some centres undefined)
- CC50 [13]: 290 µM
- pIC50 [25]: 5.26

SMILES: Cc1ccccc1-n1nnnc1C(c1cccnc1)N(C)Cc1cc(C(F)(F)F)ccc1F (centres undefined)
- pEC50 [23]: 6.00

SMILES: COc1ccc(NC(=O)C(c2ccc(C)cc2)N2CCN(c3ncnc4sc5c(c34)CCCC5)CC2)cc1 (centres undefined)
- pIC50 [2]: 6.59

SMILES: COc1ccc(NC(=O)C(c2ccc(Cl)c(Cl)c2)N2CCN(c3ncnc4sc5c(c34)CCCC5)CC2)cc1 (centres undefined)
- pIC50 [2]: 7.22

SMILES: COc1ccc(NC(=O)C(c2ccc(C(F)(F)F)cc2)N2CCN(c3ncnc4sc5c(c34)CCCC5)CC2)cc1 (centres undefined)
- pIC50 [2]: 7.30

SMILES: Cc1cc(N(CCNc2ccnc3cc(Cl)ccc23)Cc2ccccn2)nc(N2CCN(C)CC2)n1
- pIC50 [26]: 7.70

SMILES: Clc1ccc2c(NCCn3cc(-c4ccccn4)nn3)ccnc2c1
- pIC50 [15]: 6.21
- pIC50 [16]: 6.02

SMILES: CC1(C)c2nc(-c3ccc(F)cc3)c(Br)n2CCN1C(=O)Cn1cc(-c2ccnc(-c3ccccn3)c2)nn1
- pIC50 [15]: 5.17
- pIC50 [16]: 5.41

SMILES: COC(=O)C1=C(Cn2cc(COc3cc(C(F)(F)F)nc4c(C(F)(F)F)cccc34)nn2)NC(=O)NC1c1ccc(OC)cc1 (centres undefined)
- pIC50 [17]: < 5.30

SMILES: Cc1ncc(Cn2cc(CCOC(=O)c3cccc(Cl)c3)nn2)c(N)n1
- IC50 at 48 h [24]: > 200 µM

SMILES: CCN1CCN(c2cc(C)nc(N(CCCNc3ccnc4cc(Cl)ccc34)Cc3cccs3)n2)CC1
- pIC50 [26]: 7.49
- pIC50 [9]: 8.00

SMILES: Cc1ccccc1-n1nnnc1C(c1cccnc1)N(Cc1cc(C(F)(F)F)ccc1F)C1CC1 (centres undefined)
- pEC50 [23]: 6.22

SMILES: CN(Cc1cccc(C(F)(F)F)c1F)C(c1cccnc1)c1nnnn1C1CCCCC1 (centres undefined)
- pEC50 [11]: 5.59
- pEC50 [23]: 5.77

SMILES: CCN1CCN(c2nc(C)cc(N(CCNc3ccnc4cc(Cl)ccc34)Cc3ccccn3)n2)CC1
- pIC50 [26]: 7.70
- pIC50 [9]: 7.05

SMILES: CC(=O)N(Cc1cccc(C(F)(F)F)c1)C(c1cncnc1)c1nnnn1-c1ccccc1C (centres undefined)
- pEC50 [10]: 4.82
- pEC50 [11]: < 4.52
- CC50 [12]: > 30 µM

SMILES: FC(F)(F)c1cc(Nc2ncccn2)c2cccc(C(F)(F)F)c2n1
- IC50 at 72 h [8]: > 559 µM

SMILES: Cc1ccccc1-n1nnnc1C(c1cccnc1)N(Cc1cccc(C(F)(F)F)c1)C1CC1 (centres undefined)
- CC50 [1]: 15 µM

SMILES: Cc1cc(N2CCN(C)CC2)nc(N(CCCNc2ccnc3cc(Cl)ccc23)Cc2cccs2)n1
- pIC50 [26]: 7.52
- pIC50 [9]: 8.00

SMILES: CC1(C)c2nc(-c3ccc(F)cc3)c(Br)n2CCN1C(=O)Cn1cc(-c2ccccn2)nn1
- pIC50 [15]: 4.14
- pIC50 [16]: 4.05

SMILES: COc1ccc(NC(=O)C(c2ccc(OC(F)(F)F)cc2)N2CCN(c3ncnc4sc5c(c34)CCCC5)CC2)cc1 (centres undefined)
- pIC50 [2]: 7.22

SMILES: Cc1ccccc1N(C)C(=O)C(c1cncnc1)N(Cc1cccc(C(F)(F)F)c1)C1CC1 (centres undefined)
- pEC50 [4]: 6.40
- pEC50 [5]: 6.10
- CC50 [6]: > 30 µM

SMILES: COc1ccc(-c2cc(-c3ccc(OC)cc3)nc(N3CCN(c4ccnc5cc(Cl)ccc45)CC3)n2)cc1
- pIC50 [7]: 5.11

SMILES: COC(=O)C1=C(Cn2cc(COc3cc(C(F)(F)F)nc4c(C(F)(F)F)cccc34)nn2)NC(=O)NC1c1ccc(F)cc1 (centres undefined)
- pIC50 [17]: < 5.00
